PMC8919507, “Dual Reversible Coumarin Inhibitors Mutually Bound to Monoamine Oxidase B and Acetylcholinesterase Crystal Structures” (ACS Medicinal Chemistry Letters, 2022)

Biological target: T1, mouse AChE (Mus musculus, UniProt P21836)
T1 sequence (P21836 32-614): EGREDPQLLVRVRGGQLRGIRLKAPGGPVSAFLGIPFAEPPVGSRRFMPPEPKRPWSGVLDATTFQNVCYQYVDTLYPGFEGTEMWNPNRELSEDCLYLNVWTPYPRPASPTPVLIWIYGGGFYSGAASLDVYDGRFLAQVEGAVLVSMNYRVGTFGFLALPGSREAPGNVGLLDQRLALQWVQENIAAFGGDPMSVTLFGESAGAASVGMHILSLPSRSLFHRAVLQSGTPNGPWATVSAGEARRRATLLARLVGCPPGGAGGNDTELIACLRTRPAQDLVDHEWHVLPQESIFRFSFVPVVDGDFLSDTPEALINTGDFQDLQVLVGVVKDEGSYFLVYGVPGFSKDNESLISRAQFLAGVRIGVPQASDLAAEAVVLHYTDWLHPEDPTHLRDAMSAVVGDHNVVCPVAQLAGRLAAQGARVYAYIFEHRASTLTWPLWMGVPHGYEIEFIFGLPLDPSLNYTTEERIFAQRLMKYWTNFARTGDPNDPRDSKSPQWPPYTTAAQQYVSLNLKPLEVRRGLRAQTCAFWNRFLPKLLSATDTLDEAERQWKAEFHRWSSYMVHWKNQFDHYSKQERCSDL
Test: AChE inhibition, spectrophotometric Ellman's method on purified recombinant enzyme
Details: 1 mM acetylthiocholine iodide, pH 7.4
Procedure: Mouse AChE was expressed in HEK293 F cells and purified as previously reported.3 The activity
of AChE was measured using the Ellman assay adaped to a 96-well plate format.4 The
acetylthiocholine iodide was 1 mM. The measurements were performed in 0.1 M phosphate
Determination of IC50 values for the compounds
inhibition of AChE was performed as previously reported.6 At least 5 replicate IC50 determinations at 8
inhibitor concentrations were performed for each compound. The obtained dose-response curve was
fitted using the response variable slope versus log(inhibitor concentration) equation (four parameters) in
GraphPad Prism software 5.0.

Compound	IC50 [nM]
Cc1c(C)c2ccc(OCC3CCCN(Cc4ccccc4)C3)cc2oc1=O (single isomer, unassigned; (+)) [(+)-2, 7-[(1-benzylpiperidin-3-yl)methoxy]-3,4-dimethyl-2H-chromen-2-one]	1500 ± 100
Cc1c(C)c2ccc(OCC3CCCN(Cc4ccccc4)C3)cc2oc1=O (single isomer, unassigned; (-)) [(−)-2, 7-[(1-benzylpiperidin-3-yl)methoxy]-3,4-dimethyl-2H-chromen-2-one]	700 ± 50
